Data as given in patent US9216957B2, “Androgen receptor antagonists and uses thereof” (SUZHOU KINTOR PHARMACEUTICALS, INC., priority 2011, dated 2015).

These compounds were tested on Prostate-specific antigen (PSA) production in LNCaP cells (assay: PSA Assay (inhibition of PSA production in prostate cancer cells, ELISA)). Settings: Homo sapiens, LNCaP, 72 h, read-out: LNCAP IC50 (uM), inhibition of PSA production, LNCaP cells, R1881 1 ng/ml, three days, seven point assay.
Format: cell-based, human
Description: PSA Assay (Inhibition Test of the Compound of the Present Invention on Prostate-Specific Antigen (PSA) Production in Various Prostate Cancer Cells).
Androgen dependent LNCaP cells were purchased from the American Type Culture Collection (ATCC, Manassas, Va.). These cells were grown in RPMI 1640 medium supplemented with 10% fetal bovine serum (FBS), 100 U/mL penicillin, 100 μg/mL streptomycin, and 0.25 μg/mL amphotericin B. The cells were maintained at 37° C. and 5% CO2. LNCaP cells between passage 20 and 35 were used for experiments. LNCaP is a hormone sensitive cell line. For the PSA assay, human prostate cancer cells LNCaP were seeded in a 96-well plate at a concentration of 5000 cells/100 μl/well. On the following day, Methyltrienolone (R1881, AR agonist) (final concentration 1 ng/ml), test compounds or bicalutamide (Casodex®, AstraZeneca) (final concentration 0.005 to 20 μM) were added. Three days after the addition, the concentration of PSA in the supernatant of the culture solution was measured by ELISA. ELISAs for human PSA in culture medium were performed using the ultra-sensitive assay procedure and reagents in the Active™ PSA assay kit (Diagnostic Systems Laboratories Inc., Webster, Tex.). Culture medium and standards (200 μl/well) were incubated in antibody-coated plates for 2 h at room temperature on a Titer plate shaker at 500-600 rpm. Wells were then washed five times. The HRP conjugate was diluted 1:20 with assay buffer, and 100 μl was added to all wells. The plates were incubated for 30 min at room temperature on the shaker and washed as before, and 100 μl TMB (3,3′,5,5′-tetramethylbenzidine, 0.4 g/l) was added. The plates were incubated for 10 min on the shaker, and the reaction was terminated with 100 μl stop solution. The plates were read using a plate reader at 450 nm with a 650 nm reference filter. PSA levels were normalized for differences in growth of LNCaP cells following various treatments as determined by the MTS assay. IC50 of PSA was calculated based on a seven point assay (concentrations of tested compound) and expressed as micromolar (uM).

| Compound | IC50 |
| --- | --- |
| CNC(=O)C(C)(C)CCc1ccc(N2C(=S)N(c3ccc(C#N)c(Cl)c3F)C(=O)C23CCC3)cc1 [Example 27, 4-{4-[7-(3-Chloro-4-cyano-2-fluoro-phenyl)-8-oxo-6-thioxo-5,7-diaza-spiro[3.4]oct-5-yl]-phenyl}-2,2,N-trimethyl-butyramide] | 0.47 µM |
| CC1(C)C(=O)N(c2ccc(C#N)c(C(F)(F)F)c2F)C(=S)N1c1ccc(CCCC#N)c(F)c1 [Example 28, 4-(3-(4-(3-cyanopropyl)-3-fluorophenyl)-4,4-dimethyl-5-oxo-2-thioxoimidazolidin-1-yl)-3-fluoro-2-(trifluoromethyl)benzonitrile] | 0.11 µM |
| CC1(C)C(=O)N(c2ccc(C#N)c(Cl)c2F)C(=S)N1c1ccc(CCCC#N)c(F)c1 [Example 29, 2-chloro-4-(3-(4-(3-cyanopropyl)-3-fluorophenyl)-4,4-dimethyl-5-oxo-2-thioxoimidazolidin-1-yl)-3-fluorobenzonitrile] | 0.29 µM |
| COc1c(C#N)ccc(N2C(=O)C(C)(C)N(c3ccc(CCCC#N)c(F)c3)C2=S)c1F [Example 30, 4-(3-(4-(3-cyanopropyl)-3-fluorophenyl)-4,4-dimethyl-5-oxo-2-thioxoimidazolidin-1-yl)-3-fluoro-2-methoxybenzonitrile] | 0.29 µM |
| N#CCCCc1ccc(N2C(=S)N(c3ccc(C#N)c(C(F)(F)F)c3F)C(=O)C23CCC3)cc1F [Example 31, 4-(5-(4-(3-cyanopropyl)-3-fluorophenyl)-8-oxo-6-thioxo-5,7-diazaspiro[3.4]octan-7-yl)-3-fluoro-2-(trifluoromethyl)benzonitrile] | 0.53 µM |
| COc1c(C#N)ccc(N2C(=O)C3(CCC3)N(c3ccc(CCCC#N)c(F)c3)C2=S)c1F [Example 32, 4-(5-(4-(3-cyanopropyl)-3-fluorophenyl)-8-oxo-6-thioxo-5,7-diazaspiro[3.4]octan-7-yl)-3-fluoro-2-methoxybenzonitrile] | 0.36 µM |
| N#CCCCc1ccc(N2C(=S)N(c3ccc(C#N)c(Cl)c3F)C(=O)C23CCC3)cc1F [Example 33, 2-chloro-4-(5-(4-(3-cyanopropyl)-3-fluorophenyl)-8-oxo-6-thioxo-5,7-diazaspiro[3.4]octan-7-yl)-3-fluorobenzonitrile] | 0.64 µM |
| CNC(=O)C1(CCc2ccc(N3C(=S)N(c4ccc(C#N)c(C(F)(F)F)c4F)C(=O)C3(C)C)cc2)CCC1 [Example 34, 1-(2-{4-[3-(4-Cyano-2-fluoro-3-trifluoromethyl-phenyl)-5,5-dimethyl-4-oxo-2-thioxo-imidazolidin-1-yl]-phenyl}-ethyl)-cyclobutanecarboxylic acid methylamide] | 0.62 µM |
| CNC(=O)C1(CCc2ccc(N3C(=S)N(c4ccc(C#N)c(C(F)(F)F)c4F)C(=O)C34CCC4)cc2)CCC1 [Example 35, 1-(2-{4-[7-(4-Cyano-2-fluoro-3-trifluoromethyl-phenyl)-8-oxo-6-thioxo-5,7-diaza-spiro[3.4]oct-5-yl]-phenyl}-ethyl)-cyclobutanecarboxylic acid methylamide] | 0.44 µM |
| CC1(C)C(=O)N(c2ccc(C#N)c(C(F)(F)F)c2F)C(=S)N1c1ccc(CCCC#N)nc1 [Example 36, 4-(3-(6-(3-cyanopropyl)pyridin-3-yl)-4,4-dimethyl-5-oxo-2-thioxoimidazolidin-1-yl)-3-fluoro-2-(trifluoromethyl)benzonitrile] | 0.35 µM |
| CC1(C)C(=O)N(c2ccc(C#N)c(Cl)c2F)C(=S)N1c1ccc(CCCC#N)nc1 [Example 37, 2-chloro-4-(3-(6-(3-cyanopropyl)pyridin-3-yl)-4,4-dimethyl-5-oxo-2-thioxoimidazolidin-1-yl)-3-fluorobenzonitrile] | 0.65 µM |
| CC1(C)C(=O)N(c2ccc(C#N)c(C(F)(F)F)c2)C(=S)N1c1ccc(CCCC#N)nc1 [Example 38, 4-(3-(6-(3-cyanopropyl)pyridin-3-yl)-4,4-dimethyl-5-oxo-2-thioxoimidazolidin-1-yl)-2-(trifluoromethyl)benzonitrile] | 0.52 µM |
| COc1c(C#N)ccc(N2C(=O)C(C)(C)N(c3ccc(CCCC#N)nc3)C2=S)c1F [Example 39, 4-(3-(6-(3-cyanopropyl)pyridin-3-yl)-4,4-dimethyl-5-oxo-2-thioxoimidazolidin-1-yl)-3-fluoro-2-methoxybenzonitrile] | 0.75 µM |
| CC1(C)C(=O)N(c2ccc(C#N)c(C(F)(F)F)c2F)C(=S)N1c1ccc(CCCC#N)cc1 [Example 40, 4-(3-(4-(3-cyanopropyl)phenyl)-4,4-dimethyl-5-oxo-2-thioxoimidazolidin-1-yl)-3-fluoro-2-(trifluoromethyl)benzonitrile] | 0.3 µM |
| CC1(C)C(=O)N(c2ccc(C#N)c(Cl)c2F)C(=S)N1c1ccc(CCCC#N)cc1 [Example 41, 2-chloro-4-(3-(4-(3-cyanopropyl)phenyl)-4,4-dimethyl-5-oxo-2-thioxoimidazolidin-1-yl)-3-fluorobenzonitrile] | 0.32 µM |
| N#CCCCc1ccc(N2C(=S)N(c3ccc(C#N)c(C(F)(F)F)c3F)C(=O)C23CCC3)cc1 [Example 42, 4-(5-(4-(3-cyanopropyl)phenyl)-8-oxo-6-thioxo-5,7-diazaspiro[3.4]octan-7-yl)-3-fluoro-2-(trifluoromethyl)benzonitrile] | 0.85 µM |
| N#CCCCc1ccc(N2C(=S)N(c3ccc(C#N)c(Cl)c3F)C(=O)C23CCC3)cc1 [Example 43, 2-chloro-4-(5-(4-(3-cyanopropyl)phenyl)-8-oxo-6-thioxo-5,7-diazaspiro[3.4]octan-7-yl)-3-fluorobenzonitrile] | 0.59 µM |
| CNC(=O)CCCc1ccc(N2C(=S)N(c3ccc(C#N)c(C(F)(F)F)c3F)C(=O)C2(C)C)cc1F [Example 44, 4-{4-[3-(4-Cyano-2-fluoro-3-trifluoromethyl-phenyl)-5,5-dimethyl-4-oxo-2-thioxo-imidazolidin-1-yl]-2-fluoro-phenyl}-N-methyl-butyramide] | 0.11 µM |
| CNC(=O)CCCc1ccc(N2C(=S)N(c3cc(C(F)(F)F)c(C#N)cc3F)C(=O)C2(C)C)cc1F [Example 45, 4-(4-(3-(4-cyano-2-fluoro-5-(trifluoromethyl)phenyl)-5,5-dimethyl-4-oxo-2-thioxoimidazolidin-1-yl)-2-fluorophenyl)-N-methylbutanamide] | 2.05 µM |
| CNC(=O)CCCc1ccc(N2C(=S)N(c3ccc(C#N)c(C(F)(F)F)c3F)C(=O)C23CCC3)cc1F [Example 46, 4-{4-[7-(4-Cyano-2-fluoro-3-trifluoromethyl-phenyl)-8-oxo-6-thioxo-5,7-diaza-spiro[3.4]oct-5-yl]-2-fluoro-phenyl}-N-methyl-butyramide] | 0.63 µM |
| CC1(C)C(=O)N(c2ccc(C#N)c(C(F)(F)F)c2F)C(=S)N1c1ccc(CCCC(=O)N2CC(O)C2)c(F)c1 [Example 47, 3-Fluoro-4-(3-{3-fluoro-4-[4-(3-hydroxy-azetidin-1-yl)-4-oxo-butyl]-phenyl}-4,4-dimethyl-5-oxo-2-thioxo-imidazolidin-1-yl)-2-trifluoromethyl-benzonitrile] | 0.48 µM |
| CC1(C)C(=O)N(c2ccc(C#N)c(C(F)(F)F)c2)C(=S)N1c1ccc(CCCC(=O)N2CC(O)C2)c(F)c1 [Example 48, 4-(3-{3-Fluoro-4-[4-(3-hydroxy-azetidin-1-yl)-4-oxo-butyl]-phenyl}-4,4-dimethyl-5-oxo-2-thioxo-imidazolidin-1-yl)-2-trifluoromethyl-benzonitrile] | 1.04 µM |
| CC1(C)C(=O)N(c2ccc(C#N)c(C(F)(F)F)c2F)C(=S)N1c1ccc(CCCc2ncco2)c(F)c1 [Example 49, 3-Fluoro-4-{3-[3-fluoro-4-(3-oxazol-2-yl-propyl)-phenyl]-4,4-dimethyl-5-oxo-2-thioxo-imidazolidin-1-yl}-2-trifluoromethyl-benzonitrile] | 0.49 µM |
| CC1(C)C(=O)N(c2ccc(C#N)c(C(F)(F)F)c2F)C(=S)N1c1ccc(CCCC(=O)N2CCC(O)CC2)c(F)c1 [Example 51, 3-Fluoro-4-(3-{3-fluoro-4-[4-(4-hydroxy-piperidin-1-yl)-4-oxo-butyl]-phenyl}-4,4-dimethyl-5-oxo-2-thioxo-imidazolidin-1-yl)-2-trifluoromethyl-benzonitrile] | 0.39 µM |
| CN1CCN(C(=O)CCCc2ccc(N3C(=S)N(c4ccc(C#N)c(C(F)(F)F)c4F)C(=O)C3(C)C)cc2F)CC1 [Example 53, 3-Fluoro-4-(3-{3-fluoro-4-[4-(4-methyl-piperazin-1-yl)-4-oxo-butyl]-phenyl}-4,4-dimethyl-5-oxo-2-thioxo-imidazolidin-1-yl)-2-trifluoromethyl-benzonitrile] | 0.41 µM |
| CC1(C)C(=O)N(c2ccc(C#N)c(C(F)(F)F)c2F)C(=S)N1c1ccc(CCCC(=O)N2CCOCC2)nc1 [Example 55, 4-{4,4-Dimethyl-3-[6-(4-morpholin-4-yl-4-oxo-butyl)-pyridin-3-yl]-5-oxo-2-thioxo-imidazolidin-1-yl}-3-fluoro-2-trifluoromethyl-benzonitrile] | 1.2 µM |
